The subject of one data set is mice. The data set can be described thus: Acute toxicity, intraperitoneal administration to mice. Type of data set: in vivo. As to conditions: i.p. An excerpt: (§1) The acute toxicity was studied by intraperitoneal administration to mice. It is expressed in the form of LD50 (lethal dose causing the death of half of the animals) or LD0 (maximum non-lethal dose).
For data set [1], the system named is cholesterol level in the plasma. Description: Hypocholesterolemic activity: plasma cholesterol level in rats. Type of data set: in vivo, male Wistar rats. As to conditions: Rattus norvegicus, po, T=0 to T=+24 hours, not corrected for the variation in the control group, read-out: % Variation in the cholesterol level, variation in the subject treated; for change in vivo at 100 mg/kg: 100 mg/kg p.o. at T=0 and T=+7 hours; for change in vivo at 65 mg/kg: 65 mg/kg p.o. at T=0 and T=+7 hours. How it is done: Hypocholesterolemic activity
The hypocholesterolemic activity was studied on male Wistar rats (weighing about 200 to 220 g). Groups of 10 rats per product and per dose are fasted the day before the experiment. The products to be tested are administered in gum water (30 g/liter of gum arabic) at times T=0 and T=+7 hours. The cholesterol level in the plasma is measured at times T=0 and T=+24 hours and the percentage variation between T=0 and T=+24 hours is then calculated for the treated groups and the control groups.

Data set [2] is described as follows: Acute toxicity, intraperitoneal administration to mice. Type of data set: in vivo. As to conditions: mouse, in vivo, ip, read-out: LD50 (lethal dose causing the death of half of the animals).
From the text: as §1

Data set [3] in a line: Antithrombotic effects (statement only). As to conditions: in words.

For orientation: LD50 means the dose expected to kill half of the subjects tested.

On to `O[C@@H]1[C@@H](O)[C@H](Oc2ccc(Cc3ccc(Br)cc3)cc2)OC[C@H]1O` [Example 10], for which, in the data set on mice, the “LD0 (maximum non-lethal dose)” value was at least 900 mg/kg. For the same molecule, in data set [1], the change in vivo at 100 mg/kg was -39%.
Take `O[C@@H]1[C@@H](O)[C@H](Oc2ccc(Cc3ccc(C(F)(F)F)cc3)cc2)OC[C@H]1O` [Example 18]: in data set [2], the LD50 is over 900 mg/kg. Further, in data set [1], the change in vivo at 100 mg/kg was -17%.
Regarding `COc1cccc(Cc2ccc(O[C@@H]3OC[C@@H](O)[C@H](O)[C@H]3O)cc2)c1` [Example 17], the “LD0 (maximum non-lethal dose)” value in the data set with mice is on record as over 1000 mg/kg. The change in vivo at 100 mg/kg in data set [1] is -50%.
Take `CN(C)c1ccc(Cc2ccc(O[C@@H]3OC[C@@H](O)[C@H](O)[C@H]3O)cc2)cc1` [Example 20]: the change in vivo at 100 mg/kg in data set [1] was -22%.
On to `COc1ccc(Cc2ccc(O[C@@H]3OC[C@@H](O)[C@H](O)[C@H]3O)cc2)cc1` [Example 15], for which the “LD0 (maximum non-lethal dose)” value in the data set on mice is over 800 mg/kg. Moreover, in data set [1], the change in vivo at 100 mg/kg was -47%.
As for `Cc1cc(C)c(Cc2ccc(O[C@@H]3OC[C@@H](O)[C@H](O)[C@H]3O)cc2)c(C)c1` [Example 27], in the data set on mice, the “LD0 (maximum non-lethal dose)” value is on record as at least 800 mg/kg. Moreover, in data set [1], the change in vivo at 100 mg/kg was -13%.
On to `Cc1ccccc1Cc1ccc(O[C@@H]2OC[C@@H](O)[C@H](O)[C@H]2O)cc1` [Example 12], for which the “LD0 (maximum non-lethal dose)” value in the data set on mice was over 800 mg/kg. Further, in data set [1], the change in vivo at 100 mg/kg is -28%.
Turning to `O[C@@H]1[C@@H](O)[C@H](Oc2cccc(Cc3ccccc3)c2)OC[C@H]1O` [Example 77], the change in vivo at 100 mg/kg in data set [1] is -25%.
Take `Cc1cc(Cc2ccccc2)ccc1O[C@@H]1OC[C@@H](O)[C@H](O)[C@H]1O` [Example 79]: the LD50 in data set [2] was 320 mg/kg. For the same molecule, in data set [1] (30 mg/kg p.o. at T=0 and T=+7 hours), the change in vivo at 30 mg/kg is -37%.
Take `Cc1ccc(Cc2cc(C)c(OC3OC[C@@H](O)[C@H](O)[C@H]3O)c(C)c2)cc1` (stereo partly drawn) [Example 30]: the LD50 in data set [2] worked out at 630 mg/kg. The change in vivo at 100 mg/kg in data set [1] was -12%.
For `Cc1ccc(Cc2ccc(O[C@@H]3OC[C@@H](O)[C@H](O)[C@H]3O)cc2)cc1` [Example 11], the “LD0 (maximum non-lethal dose)” value with mice is over 800 mg/kg. The change in vivo at 100 mg/kg in data set [1] was -19%.
With `O[C@@H]1[C@@H](O)[C@H](Oc2ccc(Cc3ccc(Cl)cc3Cl)cc2)OC[C@H]1O` [Example 26], in data set [2], the LD50 is 640 mg/kg. The change in vivo at 100 mg/kg in data set [1] was -8%.
On to `CSc1ccc(Cc2ccc(O[C@@H]3OC[C@@H](O)[C@H](O)[C@H]3O)cc2)cc1` [Example 85, 4-(4-methylthiobenzyl)phenyl β-D-xylopyranoside], for which the “LD0 (maximum non-lethal dose)” value in the data set on mice is given as over 800 mg/kg. In addition, the change in vivo at 100 mg/kg in data set [1] is -23%.
For `Nc1cccc(Cc2ccc(O[C@@H]3OC[C@@H](O)[C@H](O)[C@H]3O)cc2)c1` [Example 23], in that order: at least 900 mg/kg and -28%.
With `O[C@@H]1[C@@H](O)[C@H](Oc2ccc(Cc3cccc(Cl)c3)cc2)OC[C@H]1O` [Example 8], the LD50 in data set [2] was at least 800 mg/kg. The change in vivo at 100 mg/kg in data set [1] is -37%.
`Cc1cc(Cc2ccc([N+](=O)[O-])cc2)cc(C)c1OC1OC[C@@H](O)[C@H](O)[C@H]1O` (stereo partly drawn) [Example 82]: the “LD0 (maximum non-lethal dose)” value with mice is given as over 800 mg/kg.
On to `CS(=O)(=O)c1ccc(Cc2ccc(O[C@@H]3OC[C@@H](O)[C@H](O)[C@H]3O)cc2)cc1` [Example 89, 4-(4-mesylbenzyl)phenyl β-D-xylopyranoside], for which the LD50 in data set [2] stood at 450 mg/kg. In addition, the change in vivo at 45 mg/kg in data set [1] (45 mg/kg p.o. at T=0 and T=+7 hours) is -30%.
`CC(=O)N[C@H]1[C@H](Oc2ccc(Cc3ccc(S(C)(=O)=O)cc3)cc2)O[C@H](CO)[C@@H](O)[C@@H]1O` [Example 93, 4-(4-mesylbenzyl)phenyl β-D-N-acetylglucosaminopyranoside]: the “LD0 (maximum non-lethal dose)” value in the data set with mice is given as over 800 mg/kg. In addition, in data set [1], the change in vivo at 100 mg/kg was -36%.
For `O[C@@H]1[C@@H](O)[C@H](Oc2ccc(Cc3ccc(Cl)cc3)cc2)OC[C@H]1O` [Example 9, 4-(4-chlorobenzyl)phenyl β-D-xylopyranoside], the “LD0 (maximum non-lethal dose)” value in the data set with mice was over 800 mg/kg. Also, the change in vivo at 100 mg/kg in data set [1] is -37%.
In the case of `C[C@@H]1O[C@@H](Oc2ccc(Cc3ccc([N+](=O)[O-])cc3)cc2)[C@H](O)[C@H](O)[C@H]1O` [Example 5], the change in vivo at 100 mg/kg in data set [1] is -7%.
Take `O=[N+]([O-])c1cccc(Cc2ccc(O[C@@H]3OC[C@@H](O)[C@H](O)[C@H]3O)cc2)c1` [Example 2, 4-(3-nitrobenzyl)phenyl β-D-xylopyranoside]: the “LD0 (maximum non-lethal dose)” value with mice is over 800 mg/kg. In data set [1], the change in vivo at 100 mg/kg is -27%.
For `Cc1cccc(Cc2ccc(O[C@@H]3OC[C@@H](O)[C@H](O)[C@H]3O)cc2)c1` [Example 13], in that order: at least 800 mg/kg and -24%.
As for `CC(=O)O[C@@H]1[C@@H](OC(C)=O)[C@H](Oc2ccc(Cc3c(C)cc(C)cc3C)cc2)OC[C@H]1OC(C)=O` [Example 62], in the data set on mice, the “LD0 (maximum non-lethal dose)” value was over 900 mg/kg. The change in vivo at 100 mg/kg in data set [1] is -18%.
Regarding `O=[N+]([O-])c1ccc(Cc2ccc(O[C@@H]3OC[C@@H](O)[C@H](O)[C@H]3O)cc2)cc1` [Example 1, 4-(4-nitrobenzyl)phenyl β-D-xylopyranoside], the LD50 in data set [2] stood at 650 mg/kg. Moreover, in data set [3], the antithrombotic effects entry was “beneficial antithrombotic effects”. Moreover, the change in vivo at 65 mg/kg in data set [1] is -39%.
Take `O=[N+]([O-])c1ccc(Cc2ccc(O[C@@H]3O[C@H](CO)[C@@H](O)[C@H](O)[C@H]3O)cc2)cc1` [Example 71]: the “LD0 (maximum non-lethal dose)” value with mice is listed as at least 900 mg/kg. In addition, the change in vivo at 65 mg/kg in data set [1] is -21%.
For `O=[N+]([O-])c1ccc(Cc2ccc(O[C@@H]3OC[C@H](O)[C@H](O)[C@H]3O)cc2)cc1` [Example 6], the “LD0 (maximum non-lethal dose)” value with mice was at least 900 mg/kg. Besides, the change in vivo at 100 mg/kg in data set [1] is -29%.
For `CC(=O)N[C@H]1[C@H](Oc2ccc(Cc3ccc([N+](=O)[O-])cc3)cc2)O[C@H](CO)[C@@H](O)[C@@H]1O` [Example 3], in that order: over 800 mg/kg and -42%.
For `Nc1ccc(Cc2ccc(O[C@@H]3OC[C@@H](O)[C@H](O)[C@H]3O)cc2)cc1` [Example 19], in that order: over 800 mg/kg and -29%.
Regarding `O=[N+]([O-])c1cc(Cc2ccccc2)ccc1O[C@@H]1OC[C@@H](O)[C@H](O)[C@H]1O` [Example 34], the LD50 in data set [2] came to 250 mg/kg. In addition, in data set [1] (25 mg/kg p.o. at T=0 and T=+7 hours), the change in vivo at 25 mg/kg was -15%.
Take `O[C@@H]1[C@@H](O)[C@H](Oc2ccc(Cc3ccccc3Cl)cc2)OC[C@H]1O` [Example 7]: the “LD0 (maximum non-lethal dose)” value in the data set with mice was over 800 mg/kg. Further, the change in vivo at 100 mg/kg in data set [1] was -20%.
Regarding `O[C@@H]1[C@@H](O)[C@H](Oc2cccc(Cc3ccc(Cl)cc3)c2)OC[C@H]1O` [Example 75], the change in vivo at 100 mg/kg in data set [1] is -43%.
Regarding `CS(=O)(=O)c1ccc(Cc2ccc(O[C@@H]3O[C@H](CO)[C@@H](O)[C@H](O)[C@H]3O)cc2)cc1` [Example 91, 4-(4-mesylbenzyl)phenyl β-D-glucopyranoside], in the data set on mice, the “LD0 (maximum non-lethal dose)” value is given as over 800 mg/kg. In addition, the change in vivo at 100 mg/kg in data set [1] was -40%.
For `Oc1ccc(Cc2ccc(O[C@@H]3OC[C@@H](O)[C@H](O)[C@H]3O)cc2)cc1` [Example 29], in that order: at least 800 mg/kg and -37%.
Take `O=[N+]([O-])c1ccc(Cc2ccc(O[C@@H]3O[C@H](CO)[C@H](O)[C@H](O)[C@H]3O)cc2)cc1` [Example 4]: the “LD0 (maximum non-lethal dose)” value with mice is recorded as at least 900 mg/kg. Moreover, the change in vivo at 100 mg/kg in data set [1] was -33%.
For `O[C@@H]1[C@@H](O)[C@H](Oc2ccc(Cc3ccccc3)cc2)OC[C@H]1O` [Example 33, 4-(benzyl)phenyl β-D-xylopyranoside], in that order: over 800 mg/kg and -38%.

The values above are taken from patent publication US4598068A, “Benzylphenyl osides, method of preparation and use therefor” (Societe de Recheres Industrielles, priority 1983, dated 1986).
